This data set deals with ATP-binding cassette sub-family C member 2 (Homo sapiens, UniProt Q92887). In words: TP_TRANSPORTER: secretion into apical vacuoles in Hep G2 cells. In kind it is functional, cell-based. To be noted: hepg2.
ATP-binding cassette sub-family C member 2, sequence (Q92887 whole entry): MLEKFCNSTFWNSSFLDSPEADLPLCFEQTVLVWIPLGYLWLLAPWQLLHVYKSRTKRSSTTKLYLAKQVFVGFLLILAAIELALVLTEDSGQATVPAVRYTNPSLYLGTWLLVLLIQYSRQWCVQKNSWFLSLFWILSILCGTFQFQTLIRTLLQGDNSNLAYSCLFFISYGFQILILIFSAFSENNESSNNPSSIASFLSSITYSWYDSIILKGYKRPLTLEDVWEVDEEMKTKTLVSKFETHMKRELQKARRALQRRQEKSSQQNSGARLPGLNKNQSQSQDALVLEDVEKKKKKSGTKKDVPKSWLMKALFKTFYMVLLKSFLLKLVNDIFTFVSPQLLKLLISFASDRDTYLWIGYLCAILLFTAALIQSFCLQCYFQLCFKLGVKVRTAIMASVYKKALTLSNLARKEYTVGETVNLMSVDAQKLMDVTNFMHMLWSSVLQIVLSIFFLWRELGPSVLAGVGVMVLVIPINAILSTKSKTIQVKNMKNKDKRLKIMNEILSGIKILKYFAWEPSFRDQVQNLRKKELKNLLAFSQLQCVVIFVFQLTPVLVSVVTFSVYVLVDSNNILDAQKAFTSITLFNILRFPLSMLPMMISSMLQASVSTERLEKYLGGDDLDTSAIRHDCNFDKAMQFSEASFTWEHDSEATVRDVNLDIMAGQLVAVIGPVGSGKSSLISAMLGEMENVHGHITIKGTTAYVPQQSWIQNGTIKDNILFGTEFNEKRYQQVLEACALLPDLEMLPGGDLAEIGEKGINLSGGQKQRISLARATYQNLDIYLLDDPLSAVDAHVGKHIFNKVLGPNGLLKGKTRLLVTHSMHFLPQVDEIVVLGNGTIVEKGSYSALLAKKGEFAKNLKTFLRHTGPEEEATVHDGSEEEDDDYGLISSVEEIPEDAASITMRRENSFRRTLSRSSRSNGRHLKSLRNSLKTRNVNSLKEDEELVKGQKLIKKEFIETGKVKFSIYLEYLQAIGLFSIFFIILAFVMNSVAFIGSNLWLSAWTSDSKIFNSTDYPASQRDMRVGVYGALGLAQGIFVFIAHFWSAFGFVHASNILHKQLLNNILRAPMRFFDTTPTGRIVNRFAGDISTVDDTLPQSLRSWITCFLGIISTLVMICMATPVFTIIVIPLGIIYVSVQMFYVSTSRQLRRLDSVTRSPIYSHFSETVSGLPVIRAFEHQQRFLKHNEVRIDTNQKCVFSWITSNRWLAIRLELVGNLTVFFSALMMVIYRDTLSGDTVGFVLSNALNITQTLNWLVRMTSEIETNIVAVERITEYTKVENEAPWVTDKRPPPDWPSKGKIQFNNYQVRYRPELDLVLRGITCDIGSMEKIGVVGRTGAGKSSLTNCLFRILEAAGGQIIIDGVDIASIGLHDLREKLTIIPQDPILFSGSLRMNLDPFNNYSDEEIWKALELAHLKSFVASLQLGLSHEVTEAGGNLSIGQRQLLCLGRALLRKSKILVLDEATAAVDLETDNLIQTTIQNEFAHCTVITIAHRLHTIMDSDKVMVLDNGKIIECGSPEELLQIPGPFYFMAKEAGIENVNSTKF
As for `CC(CCC(=O)NC(CCCCNc1ccc([N+](=O)[O-])c2nonc12)COO)[C@H]1CC[C@H]2[C@@H]3[C@H](O)CC4C[C@H](O)CC[C@]4(C)[C@H]3CC[C@]12C` (some centres undefined), the Activity result was “substrate [+]”.

Turning to `CC(CCC(=O)NCC(=O)Nc1ccc(-c2c3ccc(=O)cc-3oc3cc(O)ccc23)c(C(=O)O)c1)[C@H]1CC[C@H]2[C@@H]3[C@H](O)CC4C[C@H](O)CC[C@]4(C)[C@H]3C[C@H](O)[C@]12C` (some centres undefined), the Activity result is “substrate [+]”.

For `Cc1ccc(N(CC(=O)O)CC(=O)O)c(OCCOc2cc(-c3c4cc(Cl)c(=O)cc-4oc4cc(O)c(Cl)cc34)ccc2N(CC(=O)O)CC(=O)O)c1`, the Activity entry is “substrate [+]”.

Consider `O=C1OC2(c3ccc(O)cc3Oc3cc(O)ccc32)c2ccccc21` [FLUORESCEIN], for which the Activity result is “substrate [+]”.

For the origin of these results see ChEMBL document CHEMBL2073786, “MRP2, a human conjugate export pump, is present and transports fluo 3 into apical vacuoles of Hep G2 cells” (Am J Physiol Gastrointest Liver Physiol, 2000).
